Reference: patent EP0769966B1, “BIOTIN COMPOUNDS FOR TARGETTING TUMORS AND SITES OF INFECTION” (priority 1994, dated 1995)

What was measured:
[1] = tested on: E. coli infection in right thigh; conditions: Time 4 (time unit not given); Reference *1; cited from earlier work
in vivo = type: in vivo, male Sprague-Dawley rats; conditions: rat, in vivo, iv
Description: (§1) A clinical isolate of E. Coli was stored at -70°C in a freezing media containing 20% glycerol and 80% dextrose phosphate until use. Aliquots of bacteria were defrosted and colony counts performed on serial dilutions grown overnight on BBL Brucella agar plates. Based on the colony count, freshly thawed bacteria suspensions were washed and diluted with saline to a final concentration of […]. Aliquots (0.1 ml) of bacterial suspensions (8 x 10^9 organisms/ml) were injected into the right thigh muscle of 48 male Sprague-Dawley rats (125-150 g, Charles River Breeding Laboratories, Burlington, MD). Twenty-four rats were used for each labeled biotin compound. Twenty-four hours after injection, swelling in the right thigh readily appeared, and 24 rats each received 1.67 mg of avidin in saline via the tail vein. […] Rats were sacrificed at 5 and 60 min. post-injection, six rats per time point. Blood samples were obtained by cardiac puncture. Syringes were weighed before and after injection to determine the volume delivered. The activity per unit volume was obtained from standards. A total of eleven different tissues were excised, weighed, and counted. These tissues included blood; bone; lung; liver; adrenal; spleen; kidneys; heart; muscle (thigh); teste; and infected muscle (thigh). The excised tissues were blotted, weighed, and counted in a scintillation well counter. The raw counts were decay corrected. The results were expressed as percent injected dose per gram, and infection-to-normal muscle ratios (mean ± s.d.). The biodistribution results were evaluated by analysis of variance (one-way ANOVA). The effect of avidin […] on biodistribution was evaluated by student t-test.

E. coli infected rats = experiment: in vivo; type: in vivo, male Sprague-Dawley rats; conditions: for Infected to normal tissue ratio, Norm mus: infection/normal muscle
Description: as §1

avidin = avidin (Gallus gallus, UniProt P02701); experiment: Competitive binding of F-18 labeled biotin analogs to avidin vs. unlabeled d-biotin
Sequence of avidin (P02701 25-152): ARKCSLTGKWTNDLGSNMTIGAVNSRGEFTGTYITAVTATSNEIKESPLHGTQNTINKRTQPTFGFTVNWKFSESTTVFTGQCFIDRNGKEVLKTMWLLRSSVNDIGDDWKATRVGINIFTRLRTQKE
Description: The two biotin derivatives were evaluated for binding to avidin in the presence of varying concentrations of unlabeled d-biotin as described in Example 3.
A preliminary measure of the binding characteristics of the fluoro analogs of biotin were performed. The binding of these novel F-18 labeled biotin analogs to avidin was evaluated by measuring the binding of F-18 labeled biotin analogs to avidin in the presence of varying concentrations of unlabeled d-biotin. Serial dilutions of d-biotin were prepared in phopshate buffered saline pH 7.4 (PBS). A fixed quantity of the no-carrier added F-18 labeled biotin 1 or 2 (10- 100µCi) were mixed with each d-biotin dilution so that the range of concentrations of cold biotin were 3 orders of magnitude greater and less than the concentration of avidin ([…]). A 200 µl aliquot of the F-18 biotin/cold biotin solution was added to 200 µl of avidin in PBS. The solution was vortexed and allowed to incubate for 1 hour after which time a 5 µl aliquot of the solution was analysed by instant thin layer chromatography (Gelman ILTC-SG) using 0.1 M acetate buffer pH 6.0. In this chromatographic system the F-18 biotin analogs bound to avidin origin while the unbound F-18-biotin analogs move to the solvent front. Percent binding of F-18 biotin analog was calculated as [(counts at origin/total counts)* 100]. For each F-18-biotin analog potential impurities remaining at the origin were determined and the results of binding corrected accordingly.

[2] = Without Avidin, 60 Min., listed as 18F-biotin1
[3] = Without Avidin, 60 Min., listed as 18F-labeled biotin 1

Compound: ^67Ga-citrate
- Infected/normal muscle ratio [1]: 2.6±0.6

Compound: O=C(CCCC[C@@H]1SC[C@@H]2NC(=O)N[C@@H]21)NCCC[18F] [Biotin 1]
- tissue uptake at 5 min (in vivo; Tissue distribution, Adrenal): 1 ± 0.2 %ID/g
- tissue uptake at 1 h (in vivo; Tissue distribution, Adrenal): 0.09 ± 0.02 %ID/g
- tissue uptake at 5 min (in vivo; Tissue distribution, Blood): 1.07 ± 0.31 %ID/g
- tissue uptake at 1 h (in vivo; Tissue distribution, Blood): 0.14 ± 0.02 %ID/g
- tissue uptake at 5 min (in vivo; Tissue distribution, Bone): 1.1 ± 0.16 %ID/g
- tissue uptake at 1 h (in vivo; Tissue distribution, Bone): 2.94 ± 0.37 %ID/g
- tissue uptake at 5 min (in vivo; Tissue distribution, Heart): 1 ± 0.34 %ID/g
- tissue uptake at 1 h (in vivo; Tissue distribution, Heart): 0.14 ± 0.02 %ID/g
- tissue uptake at 5 min (in vivo; Tissue distribution, Inf mus): 1.22 ± 0.36 %ID/g
- tissue uptake at 1 h (in vivo; Tissue distribution, Inf mus): 0.43 ± 0.1 %ID/g
- tissue uptake at 5 min (in vivo; Tissue distribution, Kidney): 4.78 ± 0.8 %ID/g
- tissue uptake at 1 h (in vivo; Tissue distribution, Kidney): 0.23 ± 0.05 %ID/g
- tissue uptake at 5 min (in vivo; Tissue distribution, Liver): 1.39 ± 0.16 %ID/g
- tissue uptake at 1 h (in vivo; Tissue distribution, Liver): 0.13 ± 0.03 %ID/g
- tissue uptake at 5 min (in vivo; Tissue distribution, Lung): 1.21 ± 0.13 %ID/g
- tissue uptake at 1 h (in vivo; Tissue distribution, Lung): 0.11 ± 0.02 %ID/g
- tissue uptake at 5 min (in vivo; Tissue distribution, Norm mus): 0.83 ± 0.09 %ID/g
- tissue uptake at 1 h (in vivo; Tissue distribution, Norm mus): 0.078 ± 0.02 %ID/g
- tissue uptake at 5 min (in vivo; Tissue distribution, Spleen): 1.4 ± 0.3 %ID/g
- tissue uptake at 1 h (in vivo; Tissue distribution, Spleen): 0.14 ± 0.03 %ID/g
- tissue uptake at 5 min (in vivo; Tissue distribution, Teste): 0.57 ± 0.02 %ID/g
- tissue uptake at 1 h (in vivo; Tissue distribution, Teste): 0.16 ± 0.03 %ID/g
- tissue uptake at 1 h (in vivo; ^18F bone uptake (defluorination in vivo)): 2.94 ± 0.37 %ID/g
- Infected to normal tissue ratio, Adrenal (E. coli infected rats; With Avidin, 5 Min.): 1.20±0.22
- Infected to normal tissue ratio, Blood (E. coli infected rats; With Avidin, 5 Min.): 0.90±0.14
- Infected to normal tissue ratio, Heart (E. coli infected rats; With Avidin, 5 Min.): 1.08±0.18
- Infected to normal tissue ratio, Kidney (E. coli infected rats; With Avidin, 5 Min.): 0.28±0.06
- Infected to normal tissue ratio, Liver (E. coli infected rats; With Avidin, 5 Min.): 0.83±0.16
- Infected to normal tissue ratio, Lung (E. coli infected rats; With Avidin, 5 Min.): 1.06±0.30
- Infected to normal tissue ratio, Spleen (E. coli infected rats; With Avidin, 5 Min.): 0.64±0.11
- Infected to normal tissue ratio, Teste (E. coli infected rats; With Avidin, 5 Min.): 2.00±0.37
- Infected to normal tissue ratio, bone (E. coli infected rats; With Avidin, 5 Min.): 0.90±0.18
- Infected to normal tissue ratio, Norm mus (E. coli infected rats; With Avidin, 5 Min.): 1.24±0.20
- Infected to normal tissue ratio, Adrenal (E. coli infected rats; With Avidin, 60 Min.): 5.74±1.14
- Infected to normal tissue ratio, Blood (E. coli infected rats; With Avidin, 60 Min.): 3.75±0.75
- Infected to normal tissue ratio, Heart (E. coli infected rats; With Avidin, 60 Min.): 7.59±1.34
- Infected to normal tissue ratio, Kidney (E. coli infected rats; With Avidin, 60 Min.): 2.04±0.35
- Infected to normal tissue ratio, Liver (E. coli infected rats; With Avidin, 60 Min.): 4.05±0.65
- Infected to normal tissue ratio, Lung (E. coli infected rats; With Avidin, 60 Min.): 4.83±0.91
- Infected to normal tissue ratio, Spleen (E. coli infected rats; With Avidin, 60 Min.): 3.34±0.72
- Infected to normal tissue ratio, Teste (E. coli infected rats; With Avidin, 60 Min.): 3.35±0.56
- Infected to normal tissue ratio, bone (E. coli infected rats; With Avidin, 60 Min.): 0.28±0.07
- Infected to normal tissue ratio, Norm mus (E. coli infected rats; With Avidin, 60 Min.): 6.39± 0.96
- Infected to normal tissue ratio, Norm mus (E. coli infected rats; With Avidin, 60 Min., listed as 18F-labeled biotin 1): 6.39±0.96
- Infected to normal tissue ratio, Adrenal (E. coli infected rats; Without Avidin, 5 Min.): 1.06±0.24
- Infected to normal tissue ratio, Blood (E. coli infected rats; Without Avidin, 5 Min.): 1.30±0.86
- Infected to normal tissue ratio, Heart (E. coli infected rats; Without Avidin, 5 Min.): 1.21±0.26
- Infected to normal tissue ratio, Kidney (E. coli infected rats; Without Avidin, 5 Min.): 0.26±0.05
- Infected to normal tissue ratio, Liver (E. coli infected rats; Without Avidin, 5 Min.): 0.89±0.25
- Infected to normal tissue ratio, Lung (E. coli infected rats; Without Avidin, 5 Min.): 1.00±0.23
- Infected to normal tissue ratio, Spleen (E. coli infected rats; Without Avidin, 5 Min.): 0.94±0.49
- Infected to normal tissue ratio, Teste (E. coli infected rats; Without Avidin, 5 Min.): 2.14±0.60
- Infected to normal tissue ratio, bone (E. coli infected rats; Without Avidin, 5 Min.): 1.06±0.33
- Infected to normal tissue ratio, Norm mus (E. coli infected rats; Without Avidin, 5 Min.): 1.54±0.69
- Infected to normal tissue ratio, Adrenal (E. coli infected rats; Without Avidin, 60 Min.): 5.20±1.20
- Infected to normal tissue ratio, Heart (E. coli infected rats; Without Avidin, 60 Min.): 6.21±0.57
- Infected to normal tissue ratio, Lung (E. coli infected rats; Without Avidin, 60 Min.): 4.21±0.69
- Infected to normal tissue ratio, Spleen (E. coli infected rats; Without Avidin, 60 Min.): 2.98±0.30
- Infected to normal tissue ratio, Teste (E. coli infected rats; Without Avidin, 60 Min.): 2.87±0.50
- Infected to normal tissue ratio, bone (E. coli infected rats; Without Avidin, 60 Min.): 0.16±0.04
- Infected to normal tissue ratio, Norm mus (E. coli infected rats; Without Avidin, 60 Min.): 6.08 ± 1.12
- Infected to normal tissue ratio, Norm mus (E. coli infected rats; Without Avidin, 60 Min., listed as 18F-Biotin 1): 6.1±1.1
- Infected to normal tissue ratio, Norm mus (E. coli infected rats; [2]): 6.1
- Infected to normal tissue ratio, Norm mus (E. coli infected rats; [3]): 6.08±1.12
- Infected to normal tissue ratio, Norm mus (E. coli infected rats; Without Avidin, 60 Min., listed as biotin 1): 6.08± 1.12
- Infected to normal tissue ratio, Blood (E. coli infected rats; [2]): 3.1
- Infected to normal tissue ratio, Kidney (E. coli infected rats; [2]): 2.0
- Infected to normal tissue ratio, Liver (E. coli infected rats; [2]): 3.5
- Infected to normal tissue ratio, Blood (E. coli infected rats; [3]): 3.09±0.54
- Infected to normal tissue ratio, Kidney (E. coli infected rats; [3]): 1.96±0.24
- Infected to normal tissue ratio, Liver (E. coli infected rats; [3]): 3.48±0.67
- accumulation in kidney relative to blood (E. coli infected rats; rat, in vivo, 5 min): 4.5 fold
- Tissue distribution, Adrenal (E. coli infected rats; rat, in vivo, iv, 5 min): 0.85±0.13 percent injected dose per gram
- Tissue distribution, Blood (E. coli infected rats; rat, in vivo, iv, 5 min): 1.13±0.11 percent injected dose per gram
- Tissue distribution, Bone (E. coli infected rats; rat, in vivo, iv, 5 min): 1.19±0.23 percent injected dose per gram
- Tissue distribution, Heart (E. coli infected rats; rat, in vivo, iv, 5 min): 0.99±0.12 percent injected dose per gram
- Tissue distribution, Inf mus (E. coli infected rats; rat, in vivo, iv, 5 min): 0.99±0.11 percent injected dose per gram
- Tissue distribution, Kidney (E. coli infected rats; rat, in vivo, iv, 5 min): 4.01±0.77 percent injected dose per gram
- Tissue distribution, Liver (E. coli infected rats; rat, in vivo, iv, 5 min): 1.29±0.17 percent injected dose per gram
- Tissue distribution, Norm mus (E. coli infected rats; rat, in vivo, iv, 5 min): 0.82±0.12 percent injected dose per gram
- Tissue distribution, Spleen (E. coli infected rats; rat, in vivo, iv, 5 min): 1.52±0.32 percent injected dose per gram
- Tissue distribution, Teste (E. coli infected rats; rat, in vivo, iv, 5 min): 0.50±0.11 percent injected dose per gram
- Tissue distribution, Blood (E. coli infected rats; rat, in vivo, iv, 1 h): 0.19±0.04 percent injected dose per gram
- Tissue distribution, Bone (E. coli infected rats; rat, in vivo, iv, 1 h): 2.29±0.14 percent injected dose per gram
- Tissue distribution, Inf mus (E. coli infected rats; rat, in vivo, iv, 1 h): 0.65±0.14 percent injected dose per gram
- Tissue distribution, Kidney (E. coli infected rats; rat, in vivo, iv, 1 h): 0.32±0.04 percent injected dose per gram
- Tissue distribution, Norm mus (E. coli infected rats; rat, in vivo, iv, 1 h): 0.10±0.02 percent injected dose per gram
- Tissue distribution, Spleen (E. coli infected rats; rat, in vivo, iv, 1 h): 0.19±0.0 percent injected dose per gram
- Tissue distribution, Teste (E. coli infected rats; rat, in vivo, iv, 1 h): 0.19±0.04 percent injected dose per gram
- binding to avidin (avidin; in the presence of varying concentrations of unlabeled d-biotin): bind to avidin and could be displaced by cold d-biotin
- Bmax (avidin; scatchard transformation of displacement curve, cold d-biotin): 5.57 x 10 ^-16 M
